Laboratory results published in patent publication US4703107A, “Water-soluble acylated derivatives of peptides or amino acids, their preparation and their use” (priority 1983, dated 1987).
Values after ≈ are worked out from the molar mass of the structure shown. Counter-ions that a name gives are not always drawn. Like-named read-outs stand apart in the source and are kept apart here. Where a SMILES comes first, the peptide text is derived from it. The star is where a group is joined. Doxorubicin(3'-N) = COc1cccc2c1C(=O)c1c(O)c3c(c(O)c1C2=O)C[C@@](O)(C(=O)CO)C[C@@H]3O[C@H]1C[C@H](N*)[C@H](O)[C@H](C)O1; dGluconoyl = O=C([C@H](O)[C@@H](O)[C@H](O)[C@H](O)CO)*; NH(9-Et-carbazol-3-yl) = CCn1c2ccccc2c2cc(N*)ccc21; AMC = Cc1cc(=O)oc2cc(N*)ccc12

What was measured:
[1] = tested on: mice; test: Toxicity of prodrugs on mice; format: in vivo; details: for Number of surviving mice at day 8 / Number of surviving mice at day 30 / Weight variation at day 8: two intravenous injections at days 0 and 2, mg/kg/injection: ADR 19,7, GlcA-Gly-Pro-Lys-ADR 35,1, GlcA-Ile-Phe-Lys-ADR 37,0; for Apparent lesions: two intravenous injections at days 0 and 2, footnotes to day 30 column
Text: GlcA-Gly-Pro-Lys-Adriamycin and GlcA-Ile-Phe-Lys-Adriamycin was studied on mice after two intravenous injections at days 0 and 2.

[2] = Solubility in distilled water / aqueous solution; format: physicochemical; details: for solubility in distilled water: at 20° C.
Description: The solubility of the PHA-L-Ala-L-Ala-L-Pro-L-Ala-AEC is greater than 80 mg/ml in distilled water or a buffer with a pH between 3 and 9.
The solubility of this compound in distilled water is 2.0 mM/l at 20° C.
The influence of the length of the N-acylating polyhydroxyalcanoyl group on the water solubility of fluorogenic substrates is shown in Table III in the case of a chymotrypsin specific substrate PHA-L-Ala-L-Ala-L-Phe-7-amido-4-methylcoumarin.

[3] = pH 8.1, aqueous buffer
[4] = Table IV; same values as Table I
[5] = tested on: leucemic cells L1210, Lewis lung carcinoma "3LL"; test: Penetration into and death of tumor cells; format: cell-based
[6] = Table III, water solubility, 20° C., read-out: SOLUBILITY (mM AT 20° C.)

Compound	solubility [3] [mM]	solubility [4] [mM]	further results
COc1cccc2c1C(=O)c1c(O)c3c(c(O)c1C2=O)C[C@@](O)(C(=O)CO)C[C@@H]3O[C@H]1C[C@H](N)[C@H](O)[C@H](C)O1 [ADR, Adriamycin, reference compound]			Number of surviving mice at day 8 [1]: 0/8; Number of surviving mice at day 30 [1]: 0/8; Weight variation at day 8 [1]: -17,8%
CC(=O)N[C@@H](C)C(=O)N[C@@H](C)C(=O)N[C@@H](Cc1ccccc1)C(=O)Nc1ccc2c(C)cc(=O)oc2c1 [AcAlaAlaPheAMC, reference compound] (Ac-Ala-Ala-Phe-{AMC})			solubility [2, 6]: 0.2 mM
CC[C@H](C)[C@H](NC(=O)OC(C)(C)C)C(=O)N[C@@H](Cc1ccccc1)C(=O)N[C@@H](CCCCN)C(=O)Nc1ccc2c(c1)c1ccccc1n2CC [Boc--Ile--Phe--Lys--AEC, reference compound]	0.04 (≈ 0.028 mg/mL)		
CCn1c2ccccc2c2cc(NC(=O)[C@H](CCCCN)NC(=O)[C@H](CC(C)C)NC(=O)[C@@H](NC(=O)OC(C)(C)C)C(C)C)ccc21 [Boc--Val--Leu--Lys--AEC, reference compound]	2.5 (≈ 1.63 mg/mL)		
CC[C@H](C)[C@H](NC(=O)CNC(=O)[C@H](O)[C@@H](O)[C@H](O)[C@H](O)CO)C(=O)N[C@@H](Cc1ccccc1)C(=O)N[C@@H](CCCCN)C(=O)Nc1ccc2c(c1)c1ccccc1n2CC [GlcA--Gly--Ile--Phe--Lys--AEC] (dGluconoyl-GIFK-{NH(9-Et-carbazol-3-yl)})	2.5 (≈ 2.08 mg/mL)		
COc1cccc2c1C(=O)c1c(O)c3c(c(O)c1C2=O)C[C@@](O)(C(=O)CO)C[C@@H]3O[C@H]1C[C@H](NC(=O)[C@H](CCCCN)NC(=O)[C@@H]2CCCN2C(=O)CNC(=O)[C@H](O)[C@@H](O)[C@H](O)[C@H](O)CO)[C@H](O)[C@H](C)O1 [GlcA--Gly--Pro--Lys--ADR, PHA-Gly-L-Pro-L-Lys-Adriamycin]			Apparent lesions [1]: No apparent lesion; Number of surviving mice at day 8 [1]: 8/8; Number of surviving mice at day 30 [1]: 8/8; Weight variation at day 8 [1]: +15,2%
CCn1c2ccccc2c2cc(NC(=O)[C@H](CCCCN)NC(=O)[C@@H]3CCCN3C(=O)CNC(=O)[C@H](O)[C@@H](O)[C@H](O)[C@H](O)CO)ccc21 [GlcA--Gly--Pro--Lys--AEC]	380 (≈ 255 mg/mL)	380 (≈ 255 mg/mL)	
CCn1c2ccccc2c2cc(NC(=O)[C@H](CCCNC(=N)N)NC(=O)[C@H](Cc3ccccc3)NC(=O)[C@@H](NC(=O)CNC(=O)[C@H](O)[C@@H](O)[C@H](O)[C@H](O)CO)C(C)C)ccc21 [GlcA--Gly--Val--Phe--Arg--AEC] (dGluconoyl-GVFR-{NH(9-Et-carbazol-3-yl)})	3.6 (≈ 3.05 mg/mL)	3.6 (≈ 3.05 mg/mL)	
CCn1c2ccccc2c2cc(NC(=O)[C@H](CCCCN)NC(=O)[C@H](Cc3ccccc3)NC(=O)[C@@H](NC(=O)CNC(=O)[C@H](O)[C@@H](O)[C@H](O)[C@H](O)CO)C(C)C)ccc21 [GlcA--Gly--Val--Phe--Lys--AEC] (dGluconoyl-GVFK-{NH(9-Et-carbazol-3-yl)})	4.2 (≈ 3.44 mg/mL)	4.2 (≈ 3.44 mg/mL)	
CC[C@H](C)[C@H](NC(=O)[C@H](O)[C@@H](O)[C@H](O)[C@H](O)CO)C(=O)N[C@@H](CC(C)C)C(=O)N[C@@H](CCCNC(=N)N)C(=O)Nc1ccc2c(c1)c1ccccc1n2CC [GlcA--Ile--Leu--Arg--AEC]	143 (≈ 110 mg/mL)	143 (≈ 110 mg/mL)	
CC[C@H](C)[C@H](NC(=O)[C@H](O)[C@@H](O)[C@H](O)[C@H](O)CO)C(=O)N[C@@H](CC(C)C)C(=O)N[C@@H](CCCCN)C(=O)Nc1ccc2c(c1)c1ccccc1n2CC [GlcA--Ile--Leu--Lys--AEC]	94 (≈ 69.8 mg/mL)	94 (≈ 69.8 mg/mL)	
CC[C@H](C)[C@H](NC(=O)[C@H](O)[C@@H](O)[C@H](O)[C@H](O)CO)C(=O)N[C@@H](Cc1ccccc1)C(=O)N[C@@H](CCCNC(=N)N)C(=O)Nc1ccc2c(c1)c1ccccc1n2CC [GlcA--Ile--Phe--Arg--AEC]	1.1 (≈ 0.885 mg/mL)		
CC[C@H](C)[C@H](NC(=O)[C@H](O)[C@@H](O)[C@H](O)[C@H](O)CO)C(=O)N[C@@H](Cc1ccccc1)C(=O)N[C@@H](CCCCN)C(=O)N[C@H]1C[C@H](O[C@H]2C[C@](O)(C(=O)CO)Cc3c(O)c4c(c(O)c32)C(=O)c2c(OC)cccc2C4=O)O[C@@H](C)[C@H]1O [GlcA--Ile--Phe--Lys--ADR, Glc A-L-Ile-L-Phe-L-Lys-Adriamycin]			Apparent lesions [1]: No apparent lesion; Number of surviving mice at day 8 [1]: 8/8; Number of surviving mice at day 30 [1]: 8/8; Weight variation at day 8 [1]: +14,7%
CC[C@H](C)[C@H](NC(=O)[C@H](O)[C@@H](O)[C@H](O)[C@H](O)CO)C(=O)N[C@@H](Cc1ccccc1)C(=O)N[C@@H](CCCCN)C(=O)Nc1ccc2c(c1)c1ccccc1n2CC [GlcA--Ile--Phe--Lys--AEC, Glc A-Ile-Phe-Lys-AEC, HCl]	0.54		
CCn1c2ccccc2c2cc(NC(=O)[C@H](CCCCN)NC(=O)CNC(=O)[C@H](CO)NC(=O)[C@H](O)[C@@H](O)[C@H](O)[C@H](O)CO)ccc21 [GlcA--Ser--Gly--Lys--AEC]	54 (≈ 35.7 mg/mL)		
CCn1c2ccccc2c2cc(NC(=O)[C@H](CCCNC(=N)N)NC(=O)[C@H](CC(C)C)NC(=O)[C@@H](NC(=O)[C@H](O)[C@@H](O)[C@H](O)[C@H](O)CO)C(C)C)ccc21 [GlcA--Val--Leu--Arg--AEC]	227 (≈ 172 mg/mL)	227 (≈ 172 mg/mL)	
CCn1c2ccccc2c2cc(NC(=O)[C@H](CCCNC(=N)N)NC(=O)CNC(=O)[C@H](CC(C)C)NC(=O)[C@@H](NC(=O)[C@H](O)[C@@H](O)[C@H](O)[C@H](O)CO)C(C)C)ccc21 [GlcA--Val--Leu--Gly--Arg--AEC] (dGluconoyl-VLGR-{NH(9-Et-carbazol-3-yl)})	67 (≈ 54.5 mg/mL)	67 (≈ 54.5 mg/mL)	
CCn1c2ccccc2c2cc(NC(=O)[C@H](CCCCN)NC(=O)CNC(=O)[C@H](CC(C)C)NC(=O)[C@@H](NC(=O)[C@H](O)[C@@H](O)[C@H](O)[C@H](O)CO)C(C)C)ccc21 [GlcA--Val--Leu--Gly--Lys--AEC] (dGluconoyl-VLGK-{NH(9-Et-carbazol-3-yl)})	62 (≈ 48.7 mg/mL)		
CCn1c2ccccc2c2cc(NC(=O)[C@H](CCCCN)NC(=O)[C@H](CC(C)C)NC(=O)[C@@H](NC(=O)[C@H](O)[C@@H](O)[C@H](O)[C@H](O)CO)C(C)C)ccc21 [GlcA--Val--Leu--Lys--AEC]	250 (≈ 182 mg/mL)	250 (≈ 182 mg/mL)	
CCn1c2ccccc2c2cc(NC(=O)[C@H](CCCNC(=N)N)NC(=O)[C@H](Cc3ccccc3)NC(=O)[C@@H](NC(=O)[C@H](O)[C@@H](O)[C@H](O)[C@H](O)CO)C(C)C)ccc21 [GlcA--Val--Phe--Arg--AEC]	100 (≈ 79.1 mg/mL)	100 (≈ 79.1 mg/mL)	
CCn1c2ccccc2c2cc(NC(=O)[C@H](CCCCN)NC(=O)[C@H](Cc3ccccc3)NC(=O)[C@@H](NC(=O)[C@H](O)[C@@H](O)[C@H](O)[C@H](O)CO)C(C)C)ccc21 [GlcA--Val--Phe--Lys--AEC]	165 (≈ 126 mg/mL)	165 (≈ 126 mg/mL)	
COc1cccc2c1C(=O)c1c(O)c3c(c(O)c1C2=O)C[C@@](O)(C(=O)CO)C[C@@H]3O[C@H]1C[C@H](NC(=O)[C@@H](N)CC(C)C)[C@H](O)[C@H](C)O1 [L-Leu-Adriamycine, L-Leu-Adriamycin]			penetration into tumor cells ([5]; leucemic cells L1210, Lewis lung carcinoma 3LL): penetrates the tumor cells; death of tumor cells ([5]; tumor cells): causes the death of these cells
CCn1c2ccccc2c2cc(NC(=O)[C@H](C)NC(=O)[C@@H]3CCCN3C(=O)[C@H](C)NC(=O)[C@H](C)NC(=O)[C@H](O)[C@@H](O)[C@H](O)[C@H](O)CO)ccc21 [PHA-L-Ala-L-Ala-L-Pro-L-Ala-AEC] (dGluconoyl-AAPA-{NH(9-Et-carbazol-3-yl)})			solubility ([2]; aqueous with cosolvent or surfactant or cyclodextrin, in distilled water or a buffer with a pH between 3 and 9, read-out: solubility): > 80 mg/mL
COc1cccc2c1C(=O)c1c(O)c3c(c(O)c1C2=O)C[C@@](O)(C(=O)CO)C[C@@H]3O[C@H]1C[C@H](NC(=O)[C@H](CC(C)C)NC(=O)[C@H](CCCNC(=N)N)NC(=O)[C@@H]2CCCN2C(=O)[C@H](Cc2ccccc2)NC(=O)[C@H](O)[C@@H](O)[C@H](O)[C@H](O)CO)[C@H](O)[C@H](C)O1 [PHA-L-Phe-L-Pro-L-Arg-L-Leu-Adriamycin] (dGluconoyl-FPRL-{Doxorubicin(3'-N)})			solubility in water ([2]; water): soluble in water
CCn1c2ccccc2c2cc(NC(=O)[C@H](CCCCN)NC(=O)[C@@H]3CCCN3C(=O)CNC(=O)OCc3ccccc3)ccc21 [Z--Gly--Pro--Lys--AEC, reference compound]	0.2 (≈ 0.125 mg/mL)		
CC[C@H](C)[C@H](NC(=O)OCc1ccccc1)C(=O)N[C@@H](Cc1ccccc1)C(=O)N[C@@H](CCCCN)C(=O)Nc1ccc2c(c1)c1ccccc1n2CC [Z--Ile--Phe--Lys--AEC, reference compound]	0.03 (≈ 0.022 mg/mL)		
Cc1cc(=O)oc2cc(NC(=O)[C@H](Cc3ccccc3)NC(=O)[C@H](C)NC(=O)[C@H](C)NC(=O)[C@H](O)[C@@H](O)[C@H](O)[C@H](O)CO)ccc12 [gluconoyl-L-Ala-L-Ala-L-Phe-AMC]			solubility [2, 6]: 2.4 mM; solubility in distilled water [2]: 2.4 mM/l
Cc1cc(=O)oc2cc(NC(=O)[C@H](Cc3ccccc3)NC(=O)[C@H](C)NC(=O)[C@H](C)NC(=O)C(O)C(O)C(O)C(O)C(O)C(O)CO)ccc12 (stereo partly drawn) [glucooctanoyl-L-Ala-L-Ala-L-Phe-AMC]			solubility [2, 6]: 3.2 mM; solubility in distilled water [2]: 3.2 mM/l
Cc1cc(=O)oc2cc(NC(=O)[C@H](Cc3ccccc3)NC(=O)[C@H](C)NC(=O)[C@H](C)NC(=O)[C@H](O)[C@H](O)[C@H](O)CO)ccc12 [ribonoyl-L-Ala-L-Ala-L-Phe-AMC]			solubility [2, 6]: 2 mM; solubility in distilled water [2]: 2.0 mM/l
